In brackets after ≈: the same amount, converted by molar mass.
How the values were obtained:
[1] = Cytotoxicity against mouse EAC cells; assay type: functional; conditions: Ehrlich, read-out: ED50 (the source's name)
[2] = Toxicity against mouse; assay type: organism-based; conditions: in vivo

Compound	EC50 [1] [µg/mL]	LD50 [2] [mg/kg]
Oc1cc(Br)c(Br)c2c1Oc1cc(Br)cc(Br)c1O2 [SPONGIADIOXIN A]	29 (≈ 56.2 µM)	> 150
Oc1c(Br)c(Br)cc2c1Oc1cc(Br)cc(Br)c1O2 [SPONGIADIOXIN B]	15.5 (≈ 30.1 µM)	> 150

Reference: ChEMBL document CHEMBL1155714, “Spongiadioxins A and B, two new polybrominated dibenzo-p-dioxins from an Australian marine sponge Dysidea dendyi” (J Nat Prod, 2001)
